# Test results: patent publication US20230241124A1, “ISOTONIC LIPID EMULSION” (priority 2020, published 2023)
# Counter-ions that a name gives are not always drawn.
# Test system: cardiac ischemia
# Assay: dosage study in the monkey model of cardiac ischemia
# Format: in vivo
# Experimental: This was done in groups of n=8 animals. […] The control groups consisted of sham operated animals undergoing no ischemia, and 2 groups undergoing cardiac ischemia: a saline control (n=8), and a “positive control” group (n=8) treated with Metoprolol tartrate (3 mg/kg), as usually applied to MI patients.
# [1] = day 7, positive control 3 mg/kg
structure (smiles),measurement,setting,value
COCCc1ccc(OCC(O)CNC(C)C)cc1 (stereo not shown) [Metoprolol tartrate],NT Pro BNP concentration,[1],45.7 ± 15.4 pg/mL
same,ratio of infarcted heart area,[1],5.80+/−1.83%
same,index of myocardial contractility (−dp/dt),positive control 3 mg/kg,remained unchanged
same,reduction of infarcted area versus saline control,positive control 3 mg/kg,55%
